Results on one compound are retold here after patent US12121503B2, “Antiviral treatments” (priority 2006, dated 2024).

“And” between values parts separate entries of the source, which are not always exact repeats. Equal values may be shown once. Marks after values point to notes of the source that are not given here.

In general, half-life refers to how long it takes for the measured level to halve. High values mean slow loss, low ones fast loss.

A short description of data set [1]: Plasma levels after i.v. administration in mice.
Data set [2] concerns influenza virus. The conditions noted are these: cited from earlier work.
In data set [3] the test system is Influenza A/Duck/MN/152518 (H5N1). The data set is classed as in vivo, BALB/c mice.
The subject of data set [4] is influenza infection. The conditions noted are these: oral administration over a period of days; cited from earlier work.
The test system of data set [5] is influenza virus. The conditions noted are these: cited from earlier work. The source holds these as a separate data set.
Data set [6] can be described thus: Phase I clinical study in healthy human volunteers, plasma concentration after intravenous and intramuscular administration.
Data set [7] in a line: Toxicity controls: uninfected mice treated in parallel. The conditions noted are these: for Tox Controls Surv/Total: 21 days.
The mark [8] stands for this setting: intramuscular, healthy human volunteers.

Regarding `CCC(CC)C(NC(C)=O)[C@@H]1[C@H](O)[C@@H](C(=O)O)C[C@H]1NC(=N)N` (stereo partly drawn) [Peramivir, (1S,2S,3R,4R)-3-(1-Acetamido-2-ethylbutyl)-4-guanidino-2-hydroxycyclopentane-carboxylic acid], the “Time at relatively high levels in the plasma” value in data set [1] is reported as “at least 6 hours”. In addition, in data set [2], the “Activity against the influenza virus in experimentally infected mice” value is listed as “marked activity”. In data set [3] (21 days), the “Infected, Treated Mice Surv/Total” value is 10/10** and 5/10. For the same compound, in data set [3] (mouse, in vivo), the “Effect on lung parameters” value is “moderately inhibitory”; the “Infected animals surviving the infection” value stood at 100%; the “Protection of mice (prevention of deaths, lessening of lung consolidation, inhibition of lung virus titers)” value is “significantly protective”. The “Therapeutic effect on influenza infection in humans” value in data set [4] is on record as “suboptimal therapeutic effect”. Besides, in data set [5], the “Activity against the influenza virus in vitro” value is recorded as “marked activity”. In addition, the half-life in data set [6] (human, plasma, iv) was > 12 h. In addition, in data set [6] (setting [8]), the “Kinetics of plasma concentrations” value is reported as “linear kinetics” and the Plasma half life entry is on record as “unusually extended”. In addition, the “Kinetics of plasma concentrations” value in data set [6] (intravenous, healthy human volunteers) was “linear kinetics”. Also, the “Tox Controls Surv/Total” value in data set [7] (3 mg/kg i.v.) was 3/3. Besides, the “Tox Controls Surv/Total” value in data set [7] (10 mg/kg i.v.) is reported as 3/3. Moreover, in data set [7] (20 mg/kg i.v.), the “Tox Controls Surv/Total” value was 3/3. For the same compound, in data set [7] (i.v., run in parallel), the “Survival and weight of toxicity controls” value is “all survived and gained weight”; the “Tolerability in toxicity controls” value is “well tolerated”.
